# Read-outs that look alike come from different tables or passages of the source.
# Assays:
# [1] = system: HCC70 triple negative breast cancer cell line; assay: resazurin cytotoxicity assay, HCC70 cells; format: cell-based; conditions: for SI (selectivity index), HCC70: EC50 against MCF12A cells ÷ EC50 against HCC70 cells; for EC50: Homo sapiens
# [2] = system: MCF-12 A non-tumorigenic breast epithelial cell line; assay: resazurin cytotoxicity assay, MCF-12 A cells; format: cell-based; conditions: Homo sapiens
# [3] = system: MCF-7 hormone receptor-positive breast cancer cell line; assay: resazurin cytotoxicity assay, MCF-7 cells; format: cell-based; conditions: for EC50: Homo sapiens; for SI (selectivity index), MCF-7: EC50 against MCF12A cells ÷ EC50 against MCF-7 cells
# [4] = system: oxidative burst of the whole blood; set-up: method as in PMID 23136063; conditions: cited from earlier work
# [5] = system: human ovarian cancer cells OV90; set-up: method as in PMID 32481565; conditions: treatment concentration 20 µg/mL; cited from earlier work
# [6] = system: human breast cancer MCF-7 cell line; set-up: method as in PMID 33839518; conditions: read-out: IC50 against MCF-7 cell line; cited from earlier work
# [7] = system: human ovarian cancer cells ES2; set-up: method as in PMID 32481565; conditions: treatment concentration 20 µg/mL; cited from earlier work
# [8] = system: human gastric cancer cell line SNU-1; conditions: read-out: IC50, SNU-1 proliferation; cited from earlier work
# [9] = system: U937 human monocytic cell line; set-up: method as in PMID 20828195; conditions: cited from earlier work; for reduction in cell viability / level of cell death compared to the untreated control: p < 0.05; for level of cell death compared to the untreated control: FDA/EtBr staining
# [10] = HCC70 cells, 96 h treatment, resazurin assay, read-out: EC50 and Standard deviation, HCC70
# [11] = MCF-12 A cells, 96 h treatment, resazurin assay, read-out: EC50 and Standard deviation, MCF-12 A
# [12] = MCF7, MCF-7 cells, 96 h treatment, resazurin assay, read-out: EC50 and Standard deviation, MCF-7
# [13] = HCC70, 96 h, read-out: EC50 and Standard deviation, HCC70, HCC70 cells, 96 h treatment, resazurin assay
# [14] = MCF-12A, 96 h, read-out: EC50 and Standard deviation, MCF-12 A, MCF-12 A cells, 96 h treatment, resazurin assay
# [15] = MCF7, 96 h, read-out: EC50 and Standard deviation, MCF-7, MCF-7 cells, 96 h treatment, resazurin assay
Structure (SMILES),"SI (selectivity index), HCC70 [1]","EC50 [1, 10] [nM]",melting point [°C],"EC50 [2, 11] [nM]","EC50 [3, 12] [nM]","SI (selectivity index), MCF-7 [3]",other results
"CC[C@H](C=C[C@@H](C)[C@H]1CC[C@H]2[C@@H]3CC4OC45C[C@@H](O)CC[C@]5(C)[C@H]3CC[C@]12C)C(C)C (stereo partly drawn) [Compound 4, 5,6-Epoxystigmast-22-en-3β-ol]",0.28,165700 ± 1300,142 to 145,47000 ± 1180,21900 ± 1320,–,–
"CC(C)Cc1ccc(C(C)C(=O)O)cc1 (stereo not drawn) [ibuprofen, reference compound]",–,–,–,–,–,–,IC50 [4]: 12.1 µM
"CC[C@@H](C(C)C)C(O)C(O)[C@@H](C)[C@H]1CC[C@H]2[C@@H]3CC(O)C4(O)C[C@@H](O)CC[C@]4(C)[C@H]3CC[C@]12C (stereo partly drawn) [Compound 6, Stigmastane-3β,5,6,22,23-pentol]",–,16800 ± 1170,201 to 204,22600 ± 1220,44100 ± 1400,0.51,–
"CC[C@@H](C(C)C)C(O)C(O)[C@@H](C)C1CCC2C3C(=O)C(O)C4(O)CC(=O)CC[C@]4(C)C3CC[C@@]21C (stereo partly drawn) [Compound 8, Stigmasta-3,7-dion-5,6,22,23-ol]",–,53200 ± 1060,183 to 187,> 250000,> 250000,–,–
"CC[C@@]1(O)C(=O)OCc2c1cc1n(c2=O)Cc2cc3ccccc3nc2-1 [Camptothecin, reference compound]",1.25,–,–,–,–,1.00,"EC50 ([1]; HCC70 cells, 96 h, resazurin assay, positive control, row unit nM, read-out: EC50 and Standard deviation, HCC70): 83.2 ± 1.08 nM; EC50 ([2]; MCF-12 A cells, 96 h, resazurin assay, positive control, row unit nM, read-out: EC50 and Standard deviation, MCF-12 A): 104.2 ± 1.03 nM; EC50 ([3]; MCF7, MCF-7 cells, 96 h, resazurin assay, positive control, row unit nM, read-out: EC50 and Standard deviation, MCF-7): 104 ± 9.92 nM"
"CC[C@H](/C=C/[C@@H](C)C1CCC2C3CC=C4C[C@@H](OC(C)=O)CC[C@]4(C)C3CC[C@@]21C)C(C)C (stereo partly drawn) [Compound 2, Stigmasterol acetate]",–,–,139 to 141,–,–,–,"EC50 [1, 13]: > 250000 nM; EC50 [2, 14]: > 250000 nM; EC50 [3, 15]: > 250000 nM"
"CC[C@H](C=C[C@@H](C)[C@H]1CC[C@H]2[C@@H]3CC=C4C[C@@H](O)CC[C@]4(C)[C@H]3CC[C@]12C)C(C)C [Compound 1, stigmasta-5,22-dien-3β-ol]",–,–,–,–,–,–,"EC50 [1, 13]: > 250000 nM; EC50 [2, 14]: > 250000 nM; reduction of growth of OV90 cells [5]: 50%; EC50 [3, 15]: > 250000 nM; IC50 [6]: 0.162 µM; reduction of growth of ES2 cells [7]: 50%; IC50 [8]: 15 µM"
"CC[C@@H](C(C)C)C(O)C(O)[C@@H](C)[C@H]1CC[C@H]2[C@@H]3CC=C4C[C@@H](O)CC[C@]4(C)[C@H]3CC[C@]12C (stereo partly drawn) [Compound 9, Stigmast-5-ene-3β,22,23-triol]",1.16,44500 ± 1130,–,51800 ± 1130,22900 ± 1090,–,"reduction in cell viability ([9]; U937 cells, 30, 60 and 120 µM): significant reduction; level of cell death compared to the untreated control ([9]; U937 cells): significant; cell viability ([9]; U937 cells, highest concentration 120 µM): 52.3%"
"CC[C@@H](C(C)C)C(O)C(O)[C@@H](C)[C@H]1CC[C@H]2[C@@H]3C(=O)C=C4CC(=O)CC[C@]4(C)[C@H]3CC[C@]12C (stereo partly drawn) [Compound 7, Stigmasta-5-en-3,7-dion-22,23-diol]",0.19,170100 ± 1180,137 to 140,31600 ± 1120,23200 ± 1080,1.36,–
"CC[C@H](C=C[C@@H](C)[C@H]1CC[C@H]2[C@@H]3C(=O)C=C4CC(=O)CC[C@]4(C)[C@H]3CC[C@]12C)C(C)C [Compound 3, Stigmasta-5,22-dien-3,7-dione]",0.45,67700 ± 1260,152 to 155,30200 ± 1240,42800 ± 1320,0.70,IC50 [4]: 15.6 ± 2.1 µM
"N.N.[Cl][Pt][Cl] [cisplatin, reference compound]",–,–,–,–,–,–,IC50 [6]: 13.2 µM
"CC[C@@H](C(C)C)C(O)C(O)[C@@H](C)C1CCC2C3CC4OC45C[C@@H](O)CC[C@]5(C)C3CC[C@@]21C (stereo partly drawn) [Compound 5, 5,6-Epoxystigmasta-3β,22,23-triol]",0.90,33700 ± 1330,–,30200 ± 1280,44000 ± 1400,0.69,"reduction in cell viability ([9]; U937 cells, 60 and 120 µM): significantly reduced cell viability; level of cell death compared to the untreated control ([9]; U937 cells): significant; mode of cell death ([9]; U937 cells, staining with Hoechst 33,342): apoptosis"

# Reference: publication PMC10496295, “In vitro cytotoxic effect of stigmasterol derivatives against breast cancer cells” (BMC Complementary Medicine and Therapies, 2023)
